Read-outs that look alike come from different tables or passages of the source.
How the values were obtained:
[1] = tested on: patients with advanced solid tumors; assay: Safety: adverse events graded by NCI CTCAE v3.0; format: in vivo
Source text: (§1) The phase I dose-escalation portion of the study followed the standard 3 + 3 design. Patients were enrolled at two sites in sequential cohorts of 3–6 patients each to establish the MTD. The MTD was defined as the highest dose up to the MPD at which […] of six patients experienced treatment-related dose-limiting toxicities (DLT) during the first cycle. DLTs were defined as treatment-related ≥grade 2 neuropathy with pain, ≥grade 3 non-hematologic toxicity, grade 4 neutropenia or thrombocytopenia lasting 7 or more days, or thrombocytopenia with bleeding. Toxicity was graded according to NCI CTCAE v3.0 [19].
(§2) All patients who received at least one dose of study treatment were evaluable for the safety analysis. After the initiation of carfilzomib, adverse events (AEs) were evaluated at each visit. Patients completed a comprehensive neurologic evaluation and radiographic assessment of tumor burden using computerized tomography (CT) at baseline and every 8 weeks for the first 24 weeks, then every 12 weeks thereafter or at treatment discontinuation. Patients who received at least one cycle of treatment and had both baseline and post-baseline disease assessments were evaluable for efficacy. Treatment response was assessed according to RECIST 1.0 [18]. Patients with stable disease (SD) or an objective response (CR or PR) after two cycles continued treatment until disease progression or unacceptable toxicity.

[2] = tested on: patients with advanced solid tumors; assay: Phase I dose escalation (3 + 3): DLT and MTD determination; format: in vivo
Description: Carfilzomib (Onyx Pharmaceuticals, Inc, South San Francisco, CA) was administered by intravenous infusion over 2–10 min on days 1, 2, 8, 9, 15, and 16 of a 28-day cycle. For the phase I dose-escalation portion, the starting dose in all cohorts for days 1 and 2 of cycle 1 was 20 mg/m^2, based on the tolerated dose identified in hematologic malignancies. On all remaining cycle 1 dosing days (days 8, 9, 15, and 16) and in all subsequent cycles, carfilzomib was administered at a dose of 20 mg/m^2 in cohort 1 (20/20 mg/m^2), 27 mg/m^2 in cohort 2 (20/27 mg/m^2), and 36 mg/m^2 in cohort 3 (20/36 mg/m^2). Stepped-up dosing in cycle 1 and dexamethasone premedication were adopted to abrogate fever, chills and/or rigors, and dyspnea, all of which were […] observed during initial therapy in MM trials. Dexamethasone 4 mg (intravenous or oral) was administered prior to each carfilzomib dose for the first cycle and during subsequent cycles when indicated. Upon completion of 12 treatment cycles, patients had the option of enrolling in an open-label extension study, PX-171-010 (NCT00884312).
as §1

[3] = tested on: proteasome chymotrypsin-like (CT-L) activity in whole blood and PBMCs; assay: Pharmacodynamics: proteasome CT-L activity, fluorogenic LLVY-AMC substrate assay; format: in vivo, human; details: for Median proteasome inhibition / proteasome inhibition, range: day 1 of cycle 2
Description: Whole blood was collected on day 1 of the first two cycles prior to and 1 h after infusion for measurement of proteasome activity in whole blood and peripheral blood mononuclear cells (PBMCs). CT-L activity was assessed using a fluorogenic substrate assay with succinyl–Leu–Leu–Val–Tyr–AMC (LLVY) as previously described.

[4] = tested on: advanced solid tumors; assay: Antitumor activity, treatment response by RECIST 1.0; format: in vivo, human
Description: The primary objective of the phase I dose-escalation portion of the study was to determine the maximum tolerated dose (MTD) of carfilzomib up to a maximum planned dose (MPD) of 20/36 mg/m^2. The primary objective of the expansion (various tumor types) and phase II tumor-specific portions was to determine the disease control rate [DCR = complete response (CR) + partial response (PR) + stable disease (SD)] as defined by RECIST 1.0 [18] after four cycles of treatment at the MTD or MPD. Secondary objectives included pharmacokinetics (PK) and pharmacodynamics (PDn) of carfilzomib.
Once dose escalation was completed, an additional 11 evaluable patients with assorted tumor types could enroll in the expansion cohort to receive carfilzomib at the MTD/MPD. In the phase II tumor-specific portion of the study, cohorts of patients with NSCLC, SCLC, ovarian cancer, and renal cancer were to be treated at the MTD/MPD utilizing a Simon two-stage design. Tumor types included in the phase II tumor-specific cohorts were selected based on efficacy results from the phase I dose-escalation portion and preclinical data.
as §2
Continuous and categorical data were summarized with descriptive statistics or frequencies and percentages, respectively. For the phase II tumor-specific portion, the Simon two-stage sample size calculation applied a null hypothesis objective response rate (ORR = CR + PR) of 2 % and an alternative hypothesis ORR of 15 %, with the type I error at 5 % and a power of 0.8. For stage 1, 11 evaluable patients were to be enrolled in each of the four solid tumor cohorts. […] Because there were multiple study sites, over enrollment was permitted.

[5] = human, in vivo, 20 mg/m2
Description: (§3) Serial blood samples were collected on days 1 and 16 of cycle 1 and day 16 of cycle 2 as follows: predose, immediately post-dose, and then at 5, 15, and 30 min, and 1, 2, and 4 h post-dose. Plasma samples for PK studies were assayed using validated liquid chromatography/mass spectrometry with a lower limit of detection of 0.10 ng/ml [17].
(§4) Pharmacokinetic parameters were estimated by non-compartmental analysis using WinNonlin Enterprise Version 5.2 (Pharsight Inc., Mountain View, CA).

[6] = tested on: human solid tumor xenograft model; design: method as in PMID 17616698; details: consecutive-day dosing; cited from earlier work
[7] = tested on: solid tumor cell lines; design: method as in PMID 17616698; details: 1-h pulse, replicating clinical pharmacokinetics; cited from earlier work
[8] = tested on: proteasome in PBMCs; design: method as in PMID 22761464; details: 20/27 mg/m^2, patients with hematologic malignancies; cited from earlier work
[9] = clinical; details: human, in vivo
Description: as §3, §4

[10] = tested on: patients with MM; details: human, in vivo, iv; cited from earlier work
[11] = 20 mg/m^2, one hour after administration
[12] = 27 mg/m^2, one hour after administration
[13] = 36 mg/m^2, one hour after administration

CC(C)C[C@H](NC(=O)[C@H](CCc1ccccc1)NC(=O)CN1CCOCC1)C(=O)N[C@@H](Cc1ccccc1)C(=O)N[C@@H](CC(C)C)C(=O)[C@@]1(C)CO1 [carfilzomib]
AE: fatigue ([1]; human, in vivo): 35.7% | AE: headache ([1]; human, in vivo): 42.9% | AE: hypokalemia ([1]; human, in vivo): 35.7% | patients who discontinued due to AEs ([1]; human, in vivo): 14.3% | patients who discontinued due to an AE ([1]; human, in vivo): 10.8% | patients who missed at least one carfilzomib dose due to AEs ([1]; human, in vivo): 29.2% | patients with carfilzomib dose reduced due to AEs of elevated blood creatinine/decreased CrCl ([1]; human, in vivo): 12.3% | carfilzomib dose reduced due to AEs ([1]; in vivo): No patients | deaths considered related to carfilzomib ([1]; on study or within 30 days of ending treatment): No deaths | MPD recommended for the expansion and phase II tumor-specific portions ([2]; human, in vivo, iv, 28 days): 20/36 | dose-limiting toxicities (DLT) ([2]; in vivo): no DLTs | maximum tolerated dose (MTD) ([2]; phase I dose-escalation portion, up to the MPD of 20/36 mg/m^2): No MTD was identified | Median proteasome inhibition [3, 11]: 83.4% | proteasome inhibition, range [3, 11]: 82.9–85.5% | Median proteasome inhibition [3, 12]: 91.6% | proteasome inhibition, range [3, 12]: 79.0–93.2% | Median proteasome inhibition [3, 13]: 88.6% | proteasome inhibition, range [3, 13]: 54.7–99.4% | recovery of proteasome activity by the start of the second cycle ([3]; PBMCs): there was recovery | recovery of constitutive proteasome activity between cycles ([3]; whole blood): Minimal recovery | inhibition of proteasome CT-L activity ([3]; whole blood and PBMCs, one hour after administration on day 1 of cycle 2, all doses): at least 80% | PD as best response ([4]; expansion and phase II patients, 29/51, 20/36 mg/m^2): 56.9% | patients with SD for 6 months or longer ([4]; expansion and phase II tumor-specific cohorts, 20/36 mg/m^2): four | patients with SD after two cycles ([4]; expansion and phase II tumor-specific cohorts, 22 of 51 evaluable patients, 20/36 mg/m^2): 43.1% | PR or better ([4]; expansion and phase II tumor-specific cohorts, 51 evaluable patients, 20/36 mg/m^2, after four cycles or over the study period): No patients | reduction in tumor burden ([4]; one patient with renal cancer, 20/36 mg/m^2, after five cycles): > 80% | progressive disease (PD) ([4]; phase I dose-escalation portion, 12 evaluable patients): eight | confirmed partial response (PR) ([4]; phase I dose-escalation portion, 20/36 mg/m^2, 12 evaluable patients): two | AUClast [5]: 269 ± 61.7 ng·h/mL | CL [5]: 136 ± 52.8 L/h | Cmax [5]: 3410 ± 51.5 ng/mL | antitumor activity compared with bortezomib or carfilzomib dosed on days 1 and 4 [6]: more effective antitumor activity | potency at killing solid tumor cell lines compared with bortezomib [7]: more potent than bortezomib | proteasome inhibition [8]: > 90% | AUC(0-t) ([9]; 20 mg/m2, AUClast): 251 ± 92 ng·h/mL | clearance ([9]; 20 mg/m2, CL): 4380 mL/min | Cmax ([9]; 20 mg/m2, Cmax): 2390 ± 104 ng/mL | AUC(0-t) ([9]; 27 mg/m2, AUClast): 379 ± 24.8 ng·h/mL | clearance ([9]; 27 mg/m2, CL): 2500 mL/min | Cmax ([9]; 27 mg/m2, Cmax): 4230 ± 48.8 ng/mL | Vd ([9]; 27 mg/m2, V ss): 11.1 ± 4.45 L | half-life ([9]; 27 mg/m2, t 1/2): 21 min | AUC(0-t) ([9]; 36 mg/m2, AUClast): 594 ± 52.5 ng·h/mL | clearance ([9]; 36 mg/m2, CL): 1930 mL/min | Cmax ([9]; 36 mg/m2, Cmax): 5718 ± 46.5 ng/mL | Vd ([9]; 36 mg/m2, V ss): 9.33 ± 4.8 L | half-life ([9]; 36 mg/m2, t 1/2): 52.2 min | half-life ([9]; iv, half-life): < 60 min | tolerable dose [10]: 20/27
